From patent US10004762B2, “Dialysis formulation” (Gambro Lundia AB, priority 2013, dated 2018)
Like-named read-outs stand apart in the source and are kept apart here.

Tests used:
[1] = human, in vivo
Description: (§1) Trace element concentrations have been analyzed in effluent obtained from hemodialysis (HD) patients at the end of their dialysis session.
(§2) In the study participated 47 hemodialysis patients. […] All patients received dialysis 3-5 h, 3-4 times per week. Whole blood and plasma samples for trace element analysis were obtained pre- and post-midweek dialysis treatment in 6 ml trace element-free EDTA tubes (BD Vaccutainer®, Stockholm, Sweden). In addition effluent samples were taken post-treatment in 50 ml trace element-free tubes.
(§3) Analysis of all trace elements was performed by inductively coupled plasma-mass spectrometry (ICP-MS; Thermo X7, Thermo Elemental, Winsford, UK). For plasma and blood a sample volume of 250 μL was diluted 10 times with an alkaline solution according to Bárány et al. The effluent was analysed in acidic condition, i.e. concentrated nitric acid (HNO3) was added to the samples to a final concentration of 2%. Using the dilute solution or 2% HNO3 as a carrier/rinsing fluid, the samples were introduced in a segment-flow mode.

[2] = human, in vivo; remark: listed apart in the source
Description: (§4) In the study participated 47 hemodialysis patients. These 47 hemodialysis patients (34 female and 13 male), were divided into 30 non-diabetic and 17 with diabetes mellitus, with an average age of 67 (Table 1). All patients received dialysis 3-5 h, 3-4 times per week. Whole blood and plasma samples for trace element analysis were obtained pre- and post-midweek dialysis treatment in 6 ml trace element-free EDTA tubes (BD Vaccutainer®, Stockholm, Sweden). […] In addition, the same samples were taken at one occasion from a healthy control group. The control group included 51 persons (20 female and 31 male), with an average age of 22.
as §3

[3] = in vivo
[4] = in vivo; remark: listed apart in the source
[5] = Loss of trace elements during 24 h CRRT treatment (FIG. 5A-5B); conditions: patients with CRRT (acute dialysis treatment)
[6] = Loss of trace elements during hemodialysis (HD) treatment (FIG. 5C-5E); conditions: HD patients (chronic dialysis treatment), 4 hours of HD
[7] = Trace element concentrations in effluent of hemodialysis patients (ICP-MS); conditions: effluent from HD patients at the end of dialysis session
Description: as §1, §2, §3

[8] = Trace element analysis in plasma and whole blood of HD patients and healthy controls (ICP-MS); conditions: for P2 plasma sample post-dialysis ± SEM / P1 plasma sample pre-dialysis ± SEM / B2 whole blood sample post-dialysis ± SEM / B1 whole blood sample pre-dialysis ± SEM: all HD patients; for P control ± SEM / B control ± SEM: healthy controls; for B2 whole blood sample post-dialysis ± SEM / B1 whole blood sample pre-dialysis ± SEM / B control ± SEM: whole blood; for increase of concentration during dialysis: plasma and whole blood, HD patients (FIG. 2)
Description: as §4, §3

Compound | Effluent concentration ± SD [1] | B1 whole blood sample pre-dialysis ± SEM [2] | B2 whole blood sample post-dialysis ± SEM [2] | B control ± SEM [2] | P1 plasma sample pre-dialysis ± SEM [2] | P2 plasma sample post-dialysis ± SEM [2] | actual loss during 24 hours of CRRT [3] | actual loss / removal during HD treatment [4] | actual loss during 24 hours of CRRT [5] | Effluent concentration ± SD [7] | P2 plasma sample post-dialysis ± SEM ([8]; plasma) | P1 plasma sample pre-dialysis ± SEM ([8]; plasma) | B2 whole blood sample post-dialysis ± SEM [8] | B1 whole blood sample pre-dialysis ± SEM [8] | P control ± SEM ([8]; plasma) | B control ± SEM [8] | also measured
[Cu] [Copper] | 0.026 ± 0.015 µM | 855 ± 18 µg/L | 882 ± 17 µg/L | 861 ± 27 µg/L | 1113 ± 33 µg/L | 1178 ± 29 µg/L | significant loss | removal of those trace elements in a majority of the patients |  |  |  |  |  |  |  |  | increase of concentration during dialysis [2]: ~4%; plasma concentration [2]: 1173 ± 56 ng/mL
[Mn+2] [Manganese] |  |  |  |  |  |  |  |  | significant loss | 0.005 ± 0.005 µM | 3.4 ± 0.9 µg/L | 0.8 ± 0.03 µg/L | 19.3 ± 1.4 µg/L | 17 ± 1.3 µg/L | 0.7 ± 0.02 µg/L | 9.2 ± 0.4 µg/L | actual loss / removal during HD treatment [6]: no manganese removal at all but rather an uptake; B1 whole blood sample pre-dialysis ± SEM ([8]; listed as Mn): 17.0 ± 1.1 µg/L; blood concentration post-dialysis ([8]; diabetic HD patients): 20 ± 2.7 ng/mL; blood concentration pre-dialysis ([8]; diabetic HD patients): 17 ± 2.1 ng/mL; B control ± SEM ([8]; listed as Mn): 9.2 ± 0.4 µg/L; blood concentration post-dialysis ([8]; non-diabetic HD patients): 19 ± 1.4 ng/mL; blood concentration pre-dialysis ([8]; non-diabetic HD patients): 17 ± 1.3 ng/mL
[Se] [Selenium] |  |  |  |  |  |  | significant loss | significant removal of selenium in most patients |  |  |  |  |  |  |  |  | Effluent concentration ± SD ([1]; both): 0.01 ± 0.005 µM; B1 whole blood sample pre-dialysis ± SEM ([2]; both): 66 ± 2 µg/L; B2 whole blood sample post-dialysis ± SEM ([2]; both): 68 ± 2 µg/L; B control ± SEM ([2]; both): 102 ± 3 µg/L; P1 plasma sample pre-dialysis ± SEM ([2]; both): 53 ± 2 µg/L; P2 plasma sample post-dialysis ± SEM ([2]; both): 55 ± 2 µg/L; P control ± SEM ([2]; both): 81 ± 1.9 µg/L
Zinc |  |  |  |  |  |  |  |  | some subjects show a uptake of zinc (negative loss) while others show loss of zinc | 0.017 ± 0.01 µM | 685 ± 17 µg/L | 644 ± 13 µg/L | 5842 ± 131 µg/L | 5610 ± 138 µg/L | 719 ± 17 µg/L | 5189 ± 124 µg/L | actual loss / removal during HD treatment [6]: removal of those trace elements in a majority of the patients; B1 whole blood sample pre-dialysis ± SEM ([8]; listed as Zn): 5610 ± 138 µg/L; B control ± SEM ([8]; listed as Zn): 5189 ± 124 µg/L; increase of concentration during dialysis [8]: ~5%
[Rb] [Rubidium] | 0.31 ± 0.17 µM | 972 ± 30 µg/L | 974 ± 30 µg/L | 1966 ± 51 µg/L | 187 ± 5 µg/L | 150 ± 4 µg/L | large loss | significant removal of rubidium in a majority of the patients |  |  |  |  |  |  |  |  | P control ± SEM [2]: 271 ± 5 µg/L; decrease of plasma concentration during dialysis [2]: ~20%
Cobalt |  |  |  |  |  |  |  |  | significant loss | 0.0015 ± 0.002 µM | 0.6 ± 0.1 µg/L | 0.6 ± 0.03 µg/L | 0.5 ± 0.03 µg/L | 0.5 ± 0.02 µg/L | 0.4 ± 0.02 µg/L | 0.3 ± 0.01 µg/L | P1 plasma sample pre-dialysis ± SEM ([8]; plasma, listed as Co): 0.6 ± 0.03 µg/L; P control ± SEM ([8]; plasma, listed as Co): 0.4 ± 0.02 µg/L; increase in plasma concentration during dialysis ([8]; plasma, diabetic and non-diabetic HD patients): ~15%
[Mo] [Molybdenum] | 0.003 ± 0.002 µM | 2.0 ± 0.2 µg/L | 1.0 ± 0.1 µg/L | 0.6 ± 0.1 µg/L | 2.6 ± 0.2 µg/L | 1.3 ± 0.1 µg/L | significant loss |  |  |  |  |  |  |  |  |  | P control ± SEM [2]: 0.8 ± 0.1 µg/L; decrease of concentration during dialysis [2]: ~50%; plasma concentration post-dialysis [2]: 1.2 ± 0.2 ng/mL; plasma concentration pre-dialysis [2]: 3.1 ± 0.4 ng/mL; reduction of plasma concentration during dialysis [2]: 50%
[Cr] [Chromium] |  |  |  |  |  |  |  |  | significant loss | 0.0043 ± 0.008 µM | 5.2 ± 0.6 µg/L | 3.3 ± 0.3 µg/L | 3.4 ± 0.4 µg/L | 2.1 ± 0.2 µg/L | 0.3 ± 0.02 µg/L | 0.3 ± 0.02 µg/L | P1 plasma sample pre-dialysis ± SEM ([8]; plasma, listed as Cr): 3.3 ± 0.3 µg/L; plasma concentration post-dialysis ([8]; diabetic HD patients): 2.5 ± 0.4 ng/mL; P control ± SEM ([8]; plasma, listed as Cr): 0.3 ± 0.02 µg/L; plasma concentration post-dialysis ([8]; non-diabetic HD patients): 3.8 ± 0.4 ng/mL; increase of concentration during dialysis [8]: up to 60%
